# Experimental data taken from US9890152B2 (Genentech, Inc., priority 2012, dated 2018).
# Molecular target: T1, EGFR del746-750 T790M (Homo sapiens, UniProt P00533, DEL746-750/T790M)
# T1 construct: purchased Carna Biosciences 08-528
# Test: EGFR del746-750 T790M biochemical assay (Caliper mobility shift)
# Settings: 5 μM ATP, 30 min, room temperature; apparent Ki (Morrison) converted by Cheng-Prusoff, Km of ATP 2.1 μM; read-out: EGFR(T790M/d746-750) Ki
# T1 sequence (P00533 with tags, fused parts or gaps DEL746-750/T790M limits assumed): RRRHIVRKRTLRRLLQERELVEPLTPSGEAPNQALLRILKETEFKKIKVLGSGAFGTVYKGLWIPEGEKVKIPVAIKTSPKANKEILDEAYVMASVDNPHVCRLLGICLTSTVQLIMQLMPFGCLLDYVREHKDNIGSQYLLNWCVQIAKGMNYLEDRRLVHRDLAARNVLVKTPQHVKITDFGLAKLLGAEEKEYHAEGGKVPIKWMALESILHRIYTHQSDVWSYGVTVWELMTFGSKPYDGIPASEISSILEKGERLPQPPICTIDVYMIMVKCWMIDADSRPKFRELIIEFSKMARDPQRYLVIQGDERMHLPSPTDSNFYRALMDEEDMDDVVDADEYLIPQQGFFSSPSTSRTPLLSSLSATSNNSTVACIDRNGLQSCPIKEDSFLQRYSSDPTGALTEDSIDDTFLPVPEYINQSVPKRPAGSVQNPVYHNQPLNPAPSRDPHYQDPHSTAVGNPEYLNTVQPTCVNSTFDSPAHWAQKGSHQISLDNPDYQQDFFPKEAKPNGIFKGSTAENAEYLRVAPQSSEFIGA
row,Structure (SMILES),Ki
1,"CO[C@H]1CCN(c2nccc(Nc3cc4c(cn3)nc(CO)n4C(C)C)n2)C[C@H]1F (racemic) [Example 526, (±)-{6-[2-((cis)-3-Fluoro-4-methoxypiperidin-1-yl)pyrimidin-4-ylamino]-1-isopropyl-1H-imidazo[4,5-c]pyridin-2-yl}methanol]",50.5 nM
2,"CCC(C)n1cc(C(=O)NC2CCN(C3COC3)CC2)c2cnc(Nc3ccnc(-c4cnn(S(=O)(=O)C5CC5)c4)n3)cc21 (racemic) [Example 371, (±)-1-(sec-butyl)-6-((2-(1-(cyclopropylsulfonyl)-1H-pyrazol-4-yl)pyrimidin-4-yl)amino-N-(1-(oxetan-3-yl)piperidin-4-yl)-1H-pyrrolo[3,2-c]pyridine-3-carboxamide]",1.16 nM
3,"Cc1nc2cnc(Nc3ccnc(N4CCC5(CCO5)CC4)n3)cc2n1C(C)C [Example 495, N-(2-(1-Oxa-7-azaspiro[3.5]nonan-7-yl)pyrimidin-4-yl)-1-isopropyl-2-methyl-1H-imidazo[4,5-c]pyridin-6-amine]",71.7 nM
4,"COC1CCN(c2nccc(Nc3cc4c(cn3)c(C(=O)NC(C)C)cn4C(C)C)n2)CC1 [Example 120, N,1-diisopropyl-6-((2-(4-methoxypiperidin-1-yl)pyrimidin-4-yl)amino)-1H-pyrrolo[3,2-c]pyridine-3-carboxamide]",10.2 nM
5,"CCC(C)n1cc(C(=O)NC2CCOCC2)c2cnc(Nc3ccnc(N4CCC(O)C(C)(C)C4)n3)cc21 (mixture of isomers) [Example 384, 1-(sec-butyl)-6-((2-(4-hydroxy-3,3-dimethylpiperidin-1-yl)pyrimidin-4-yl)amino)-N-(tetrahydro-2H-pyran-4-yl)-1H-pyrrolo[3,2-c]pyridine-3-carboxamide]",5.39 nM
6,"CCC(C)n1cc(C(=O)NC2CCN(C3COC3)CC2)c2cnc(Nc3ccnc(N4CC[C@@H](OC)[C@@H](F)C4)n3)cc21 (single isomer, unassigned) [Example 326]",3.83 nM
7,"CC(C)n1cnc2cnc(Nc3ccnc(N4CCc5[nH]ncc5C4)n3)cc21 [Example 12, (1-Isopropyl-1H-imidazo[4,5-c]pyridin-6-yl)-[2-(1,4,6,7-tetrahydropyrazolo[4,3-c]pyridin-5-yl)pyrimidin-4-yl]amine]",19.2 nM
8,"Cc1nc2cnc(Nc3ccnc(-c4cnn(S(=O)(=O)N(C)C)c4)n3)cc2n1C(C)C [Example 397, 4-(4-((1-isopropyl-2-methyl-1H-imidazo[4,5-c]pyridin-6-yl)amino)pyrimidin-2-yl)-N,N-dimethyl-1H-pyrazole-1-sulfonamide]",14.5 nM
9,"Cc1nc2cnc(Nc3ccnc(-c4cnn(C)c4)n3)cc2n1C(C)C [Example 365, 1-Isopropyl-2-methyl-N-(2-(1-methyl-1H-pyrazol-4-yl)pyrimidin-4-yl)-1H-imidazo[4,5-c]pyridin-6-amine]",46.5 nM
10,"CC(C)n1cnc2cnc(Nc3ccnc(NCC(C)(C)C(N)=O)n3)cc21 [Example 85, 3-(4-(1-isopropyl-1H-imidazo[4,5-c]pyridin-6-ylamino)pyrimidin-2-ylamino)-2,2-dimethylpropanamide]",20.8 nM
11,"COc1nc2cnc(Nc3ccnc(N4CCC(OC)CC4)n3)cc2n1C(C)C [Example 11, (1-Isopropyl-2-methoxy-1H-imidazo[4,5-c]pyridin-6-yl)-[2-(4-methoxypiperidin-1-yl)pyrimidin-4-yl]amine]",98.4 nM
12,"CC(C)n1cc(-c2cn3c(n2)CNCC3)c2cnc(Nc3ccnc(-c4cnn(S(=O)(=O)C5CC5)c4)n3)cc21 [Example 442, N-(2-(1-(cyclopropylsulfonyl)-1H-pyrazol-4-yl)pyrimidin-4-yl)-1-isopropyl-3-(5,6,7,8-tetrahydroimidazo[1,2-a]pyrazin-2-yl)-1H-pyrrolo[3,2-c]pyridin-6-amine]",0.81 nM
13,"COC1CCN(c2nccc(Nc3cc4c(cn3)nc(C)n4C(C)C3CC3)n2)CC1 (centres unmarked) [Example 268, [1-(1-Cyclopropylethyl)-2-methyl-1H-imidazo[4,5-c]pyridin-6-yl]-[2-(4-methoxypiperidin-1-yl)pyrimidin-4-yl]amine]",6.88 nM
14,"Cc1cc(-c2cn(C(C)C)c3cc(Nc4ccnc(-c5cnn(S(=O)(=O)C6CC6)c5)n4)ncc23)n(CCO)n1 [Example 436, 2-(5-(6-(2-(1-(cyclopropylsulfonyl)-1H-pyrazol-4-yl)pyrimidin-4-ylamino)-1-isopropyl-1H-pyrrolo[3,2-c]pyridin-3-yl)-3-methyl-1H-pyrazol-1-yl)ethanol]",1.18 nM
15,"COC1CCN(c2nccc(Nc3cc4c(cn3)c(-c3cn[nH]c3)cn4C(C)C)n2)CC1 [Example 401, 1-isopropyl-N-(2-(4-methoxypiperidin-1-yl)pyrimidin-4-yl)-3-(1H-pyrazol-4-yl)-1H-pyrrolo[3,2-c]pyridin-6-amine]",2.66 nM
16,"CNc1nc2cnc(Nc3ccnc(N4CCC(OC)CC4)n3)cc2n1C(C)C [Example 6, 1-Isopropyl-N^6-[2-(4-methoxypiperidin-1-yl)pyrimidin-4-yl]-N^2-methyl-1H-imidazo[4,5-c]pyridine-2,6-diamine]",63.3 nM
17,"CCS(=O)(=O)n1cc(-c2nccc(Nc3cc4c(cn3)c(-c3cnn(CCS(C)(=O)=O)c3)cn4C(C)C)n2)cn1 [Example 392, N-(2-(1-(ethylsulfonyl)-1H-pyrazol-4-yl)pyrimidin-4-yl)-1-isopropyl-3-(1-(2-(methylsulfonyl)ethyl)-1H-pyrazol-4-yl)-1H-pyrrolo[3,2-c]pyridin-6-amine]",1.41 nM
18,"CCC(C)n1cc(C(=O)NC2CCCOC2)c2cnc(Nc3ccnc(N4CCC(O)C(C)(C)C4)n3)cc21 (centres unmarked) [Example 374, 1-(sec-butyl)-6-((2-(4-hydroxy-3,3-dimethylpiperidin-1-yl)pyrimidin-4-yl)amino)-N-(tetrahydro-2H-pyran-3-yl)-lH-pyrrolo[3,2-c]pyridine-3-carboxamide]",3.31 nM
19,"CC(C)n1cc(C(=O)NC2CCSCC2)c2cnc(Nc3ccnc(-c4cnn(S(=O)(=O)C5CC5)c4)n3)cc21 [Example 458, 6-(2-(1-(cyclopropylsulfonyl)-1H-pyrazol-4-yl)pyrimidin-4-ylamino)-1-isopropyl-N-(tetrahydro-2H-thiopyran-4-yl)-1H-pyrrolo[3,2-c]pyridine-3-carboxamide]",1.35 nM
20,"CO[C@@H]1CCN(c2nccc(Nc3cc4c(cn3)nc([C@@H](C)O)n4[C@@H](C)C(F)(F)F)n2)C[C@@H]1F [Example 290, (R)-1-[6-[2-((3S,4R)-3-Fluoro-4-methoxypiperidin-1-yl)-pyrimidin-4-ylamino]-1-((S)-2,2,2-trifluoro-1-methylethyl)-1H-imidazo[4,5-c]pyridin-2-yl]ethanol]",4.65 nM
21,"CC[C@@H](C)n1cc(C(=O)NC2CCOCC2)c2cnc(Nc3ccnc(N4CC[C@H](OC)[C@H](F)C4)n3)cc21 (single isomer, unassigned) [Example 339]",4.12 nM

# Further lines, results first:
row,Ki,Structure (SMILES)
1,393 nM,"CC(C)n1c(CO)nc2cnc(Nc3ccnc(N4CC[C@H]([S+](C)[O-])[C@H](F)C4)n3)cc21 (relative stereo) [Example 623, {6-[2-(cis-3-Fluoro-4-methanesulfinylpiperidin-1-yl)pyrimidin-4-ylamino]-1-isopropyl-1H-imidazo[4,5-c]pyridin-2-yl}methanol]"
2,239 nM,"CO[C@H]1CCN(c2nccc(Nc3cc4c(cn3)nc(CO)n4C(C)C)n2)C[C@@H]1F (racemic) [Example 527, (±)-{6-[2-((trans)-3-Fluoro-4-methoxypiperidin-1-yl)pyrimidin-4-ylamino]-1-isopropyl-1H-imidazo[4,5-c]pyridin-2-yl}methanol]"
3,3.38 nM,"CC(C)n1c(CO)nc2cnc(Nc3ccnc(-c4cnc(N)s4)n3)cc21 [Example 615, {6-[2-(2-Aminothiazol-5-yl)pyrimidin-4-ylamino]-1-isopropyl-1H-imidazo[4,5-c]pyridin-2-yl}methanol]"
4,27.5 nM,"Cc1nc2cnc(Nc3ccnc(-n4ccnc4)n3)cc2n1C(C)C [Example 599, (2-Imidazol-1-ylpyrimidin-4-yl)-(1-isopropyl-2-methyl-1H-imidazo[4,5-c]pyridin-6-yl)amine]"
5,26.6 nM,C[C@H](O)c1nc2cnc(Nc3ccnc(N4CC[C@@H](O)[C@@H](F)C4)n3)cc2n1[C@@H](C)C(F)(F)F [Example 685]
6,97.1 nM,CO[C@@]1(C)CCN(c2nccc(Nc3cc4c(cn3)nc(C)n4C(C)C)n2)C[C@H]1F [Example 673]
7,273 nM,CC(C)n1c(CO)nc2cnc(Nc3ccnc(N4CCCCC4CO)n3)cc21 (centres unmarked) [Example 670]
8,351 nM,"CC(C)n1c(CO)nc2cnc(Nc3ccnc(N4CC[C@H](O)[C@H](C)C4)n3)cc21 (racemic) [Example 631, (±)-(cis)-1-(4-(2-(Hydroxymethyl)-1-isopropyl-1H-imidazo[4,5-c]pyridin-6-ylamino)pyrimidin-2-yl)-3-methylpiperidin-4-ol]"
9,15.3 nM,"CC(n1cc(C(=O)NC2CCOCC2)c2cnc(Nc3ccnc(N4CC[C@@H](O)[C@@H](F)C4)n3)cc21)C(F)(F)F (single isomer, unassigned) [Example 640]"
10,305 nM,CO[C@@H]1CCN(c2nccc(Nc3cc4c(cn3)nc(CO)n4C(C)C)n2)C[C@H]1C [Example 699]
11,168 nM,Cc1nc2cnc(Nc3ccnc(N4CC[C@H](C#N)C4)n3)cc2n1C(C)C [Example 679]
12,68.7 nM,"CC(C)n1c(CO)nc2cnc(Nc3ccnc(N4CC[C@H](O)[C@](C)(F)C4)n3)cc21 (racemic) [Example 645, (3RS,4SR)-3-Fluoro-1-(4-((2-(hydroxymethyl)-1-isopropyl-1H-imidazo[4,5-c]pyridin-6-yl)amino)pyrimidin-2-yl)-3-methylpiperidin-4-ol]"
13,34.3 nM,Cc1nc2cnc(Nc3ccnc(N4CCC5(OCCO5)C(F)C4)n3)cc2n1C(C)C (centres unmarked) [Example 653]
14,7.67 nM,CO[C@H]1CCN(c2nccc(Nc3cc4c(cn3)nc([C@H](C)O)n4[C@@H](C)C(F)(F)F)n2)C[C@H]1F [Example 684]
15,219 nM,Cc1nc2cnc(Nc3ccnc(N4CCC5(CC4)OCCCO5)n3)cc2n1C(C)C [Example 648]
16,14.5 nM,C[C@H](n1c([C@@H](C)O)nc2cnc(Nc3ccnc(NCC(C)(C)S(C)(=O)=O)n3)cc21)C(F)(F)F [Example 663]
17,135 nM,Cc1nc2cnc(Nc3ccnc(N4CCC(C)(O)CC4)n3)cc2n1C(C)C [Example 682]
